Laboratory results: patent publication US5369095A, “Compositions and method comprising substituted glycosides as mucus membrane permeation enhancers” (priority 1993, dated 1994)

Tests used:
[1] = Penetration of para-aminoclonidine through the cornea: amount in aqueous humor after topical dosing, liquid scintillation counting; type: in vivo, New Zealand albino rabbits; settings: 60 minutes; 0.125% para-amino-clonidine with 0.05% dodecyl maltoside versus drug without dodecyl maltoside; 30 ul topical
Description: Nine New Zealand albino rabbits were selected for evaluation of the penetration through the cornea of the para-amino-clonidine formulation set forth above. All rabbits received 30 ul of the 0.125% para-amino-clonidinetopically in both eyes. Three rabbits were sacrificed at 20 minutes from dosing and aqueous humor was withdrawn from their eyes. The aqueous humor as assayed by liquid scintillation counting to determine the amount of para-amino-clonidine in the aqueous humor. The same procedure was done on 3 different rabbits at 60 minutes from dosing and on another 3 rabbits, 120 minutes from dosing. […] Aqueous humor was withdrawn and assayed as explained above.
Nine New Zealand albino rabbits were selected for evaluation of the penetration through the cornea of the para-amino-clonidine formulation set forth above. All rabbits received 30 ul of the 0.125% para-amino-clonidinetopically in both eyes. Three rabbits were sacrificed at 20 minutes from dosing and their aqueous humor was withdrawn from their eyes. The aqueous humor was assayed by liquid scintillation counting to determine the amount of para-amino-clonidine in the aqueous humor. The same procedure was done on three different rabbits at 60 minutes from dosing and on another three rabbits, 120 minutes from dosing. […] Aqueous humor was withdrawn and assayed as explained above.

[2] = Apparent permeability coefficient through excised cornea mounted between diffusion cells; type: in vitro ADME, Albino rabbits
Description: Albino rabbits were sacrificed, and within 15 minutes, the corneas were mounted and clamped between diffusion cells according to the published procedure by Schoenwald et al. (J. Pharm. Sci. 72, 1266, 1983). 7 ml of bicarbonated Ringer's solution containing reduced glutathione was added to the endothelial side to serve as the receiver solution. An equal volume of the same solution containing Atenolol, a β-blocker, with or without dodecyl maltoside (DDM) was added to the epithelial side to serve as the donor solution. The apparent permeability coefficient was calculated from the average cumulative amount of drug penetrating through the cornea over time according to Schoenwald.
The procedure in Example 8 was repeated with the following para-amino clonidine formulations.
The procedure of Example 8 was repeated with Atenolol except dodecyl maltoside was substituted with 0.1% amount by weight of each of the following substituted glycosides of this invention and the following results were obtained.

| Compound | increase in the amount of para-aminoclonidine found in the aqueous humor [1] | permeation for para-amino clonidine as compared to control [2] | Permeability Coefficient ([2]; rabbit) |
| --- | --- | --- | --- |
| CCCCCCCCCCCCO[C@@H]1O[C@H](CO)[C@@H](O[C@H]2O[C@H](CO)[C@@H](O)[C@H](O)[C@H]2O)[C@H](O)[C@H]1O [dodecyl maltoside, Dodecyl maltoside] | four | superior permeation | – |
| Lysophosphatidyl Inositol | – | – | 14.0 cm/sec × 10^-6 |
